Reference: patent publication US20240239863A1, “GIP RECEPTOR AGONIST AND USE THEREOF” (HANGZHOU ZHONGMEIHUADONG PHARMACEUTICAL CO., LTD., priority 2022, published 2024)
Non-standard residues stand in square brackets, D forms with d. Residues, ends and D or L forms follow the SMILES beside them. Aib = CC(C)(N)C(=O)O

Target: hGLP-1R (Homo sapiens, UniProt P43220)
Assay: Cell agonistic activity at GLP-1 receptor (Example 7)
Assay type: cell-based

Chain of hGLP-1R (P43220 24-463): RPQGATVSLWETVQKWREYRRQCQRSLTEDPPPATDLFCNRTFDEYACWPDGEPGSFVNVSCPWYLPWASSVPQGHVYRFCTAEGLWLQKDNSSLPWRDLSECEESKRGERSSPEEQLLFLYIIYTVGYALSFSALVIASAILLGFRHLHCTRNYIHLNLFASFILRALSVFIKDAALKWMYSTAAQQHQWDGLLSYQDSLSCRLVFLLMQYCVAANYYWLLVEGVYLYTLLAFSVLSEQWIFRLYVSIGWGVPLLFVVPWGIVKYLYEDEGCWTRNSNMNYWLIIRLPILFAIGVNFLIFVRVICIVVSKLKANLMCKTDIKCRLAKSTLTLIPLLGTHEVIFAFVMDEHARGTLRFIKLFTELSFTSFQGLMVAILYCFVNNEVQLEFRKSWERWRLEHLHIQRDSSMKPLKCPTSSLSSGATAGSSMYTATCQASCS

Row | SMILES | EC50
1 | CC[C@H](C)[C@H](NC(=O)[C@H](CO)NC(=O)[C@H](Cc1ccc(O)cc1)NC(=O)[C@H](CC(=O)O)NC(=O)[C@H](CO)NC(=O)[C@@H](NC(=O)[C@H](Cc1ccccc1)NC(=O)[C@@H](NC(=O)CNC(=O)[C@H](CCC(=O)O)NC(=O)C(C)(C)NC(=O)[C@@H](N)Cc1ccc(O)cc1)[C@@H](C)O)[C@@H](C)CC)C(=O)N[C@@H](C)C(=O)N[C@@H](CC(C)C)C(=O)N[C@@H](CC(=O)O)C(=O)N[C@@H](CCC(=O)O)C(=O)N[C@H](C(=O)N[C@@H](Cc1c[nH]cn1)C(=O)N[C@@H](CCC(N)=O)C(=O)N[C@@H](CCCCN)C(=O)N[C@@H](CC(=O)O)C(=O)N[C@@H](Cc1ccccc1)C(=O)N[C@H](C(=O)N[C@@H](CCCCN)C(=O)N[C@@H](Cc1c[nH]c2ccccc12)C(=O)N[C@@H](CC(C)C)C(=O)N[C@@H](CC(C)C)C(=O)N[C@@H](C)C(=O)N[C@@H](CCC(N)=O)C(=O)N[C@@H](CCCCN)C(=O)NCC(=O)O)C(C)C)[C@@H](C)CC [Sequence 4] (H-Y[Aib]EGTFISDYSIALDEIHQKDFVKWLLAQKG-OH; N-terminus and C-terminus assumed) | > 0.1 nM
2 | CC[C@H](C)[C@H](NC(=O)[C@H](CO)NC(=O)[C@H](Cc1ccc(O)cc1)NC(=O)[C@H](CC(=O)O)NC(=O)[C@H](CO)NC(=O)[C@@H](NC(=O)[C@H](Cc1ccccc1)NC(=O)[C@@H](NC(=O)CNC(=O)[C@H](CCC(=O)O)NC(=O)C(C)(C)NC(=O)[C@@H](N)Cc1ccc(O)cc1)[C@@H](C)O)[C@@H](C)CC)C(=O)N[C@@H](C)C(=O)N[C@@H](CC(C)C)C(=O)N[C@@H](CC(=O)O)C(=O)N[C@@H](CCCCN)C(=O)N[C@@H](CC(C)C)C(=O)N[C@@H](Cc1c[nH]cn1)C(=O)N[C@@H](CCC(N)=O)C(=O)N[C@@H](CCC(=O)O)C(=O)N[C@@H](CC(=O)O)C(=O)N[C@@H](Cc1ccccc1)C(=O)N[C@H](C(=O)N[C@@H](CC(N)=O)C(=O)N[C@@H](Cc1c[nH]c2ccccc12)C(=O)N[C@@H](CC(C)C)C(=O)N[C@@H](CC(C)C)C(=O)N[C@@H](C)C(=O)N[C@@H](CCC(N)=O)C(=O)N[C@@H](CCCNC(=N)N)C(=O)NCC(=O)O)C(C)C [Sequence 10] (H-Y[Aib]EGTFISDYSIALDKLHQEDFVNWLLAQRG-OH; N-terminus and C-terminus assumed) | > 0.1 nM
3 | CC[C@H](C)[C@H](NC(=O)[C@H](CO)NC(=O)[C@H](Cc1ccc(O)cc1)NC(=O)[C@H](CC(=O)O)NC(=O)[C@H](CO)NC(=O)[C@@H](NC(=O)[C@H](Cc1ccccc1)NC(=O)[C@@H](NC(=O)CNC(=O)[C@H](CCC(=O)O)NC(=O)C(C)(C)NC(=O)[C@@H](N)Cc1ccc(O)cc1)[C@@H](C)O)[C@@H](C)CC)C(=O)N[C@@H](C)C(=O)N[C@@H](CC(C)C)C(=O)N[C@@H](CC(=O)O)C(=O)N[C@@H](CCC(=O)O)C(=O)N[C@H](C(=O)N[C@@H](Cc1c[nH]cn1)C(=O)N[C@@H](CCC(N)=O)C(=O)N[C@@H](CCCCN)C(=O)N[C@@H](CC(=O)O)C(=O)N[C@@H](Cc1ccccc1)C(=O)N[C@H](C(=O)N[C@@H](CC(N)=O)C(=O)N[C@@H](Cc1c[nH]c2ccccc12)C(=O)N[C@@H](CC(C)C)C(=O)N[C@@H](CC(C)C)C(=O)N[C@@H](C)C(=O)N[C@@H](CCC(N)=O)C(=O)N[C@@H](CCCNC(=N)N)C(=O)NCC(=O)O)C(C)C)[C@@H](C)CC [Sequence 5] (H-Y[Aib]EGTFISDYSIALDEIHQKDFVNWLLAQRG-OH; N-terminus and C-terminus assumed) | > 0.1 nM
4 | CC[C@H](C)[C@H](NC(=O)[C@H](CO)NC(=O)[C@H](Cc1ccc(O)cc1)NC(=O)[C@H](CC(=O)O)NC(=O)[C@H](CO)NC(=O)[C@@H](NC(=O)[C@H](Cc1ccccc1)NC(=O)[C@@H](NC(=O)CNC(=O)[C@H](CCC(=O)O)NC(=O)C(C)(C)NC(=O)[C@@H](N)Cc1ccc(O)cc1)[C@@H](C)O)[C@@H](C)CC)C(=O)N[C@@H](C)C(=O)N[C@@H](CC(C)C)C(=O)N[C@@H](CC(=O)O)C(=O)N[C@@H](CCCNC(=N)N)C(=O)N[C@@H](CC(C)C)C(=O)N[C@@H](Cc1c[nH]cn1)C(=O)N[C@@H](CCC(N)=O)C(=O)N[C@@H](CCC(N)=O)C(=O)N[C@@H](CC(=O)O)C(=O)N[C@@H](Cc1ccccc1)C(=O)N[C@H](C(=O)N[C@@H](CCCCN)C(=O)N[C@@H](Cc1c[nH]c2ccccc12)C(=O)N[C@@H](CC(C)C)C(=O)N[C@@H](CC(C)C)C(=O)N[C@@H](C)C(=O)N[C@@H](CCC(N)=O)C(=O)N[C@@H](CCCNC(=N)N)C(=O)NCC(=O)O)C(C)C [Sequence 17] (H-Y[Aib]EGTFISDYSIALDRLHQQDFVKWLLAQRG-OH; N-terminus and C-terminus assumed) | > 0.1 nM
5 | CC[C@H](C)[C@H](NC(=O)[C@H](CO)NC(=O)[C@H](Cc1ccc(O)cc1)NC(=O)[C@H](CC(=O)O)NC(=O)[C@H](CO)NC(=O)[C@@H](NC(=O)[C@H](Cc1ccccc1)NC(=O)[C@@H](NC(=O)CNC(=O)[C@H](CCC(=O)O)NC(=O)C(C)(C)NC(=O)[C@@H](N)Cc1ccc(O)cc1)[C@@H](C)O)[C@@H](C)CC)C(=O)N[C@@H](C)C(=O)N[C@@H](CC(C)C)C(=O)N[C@@H](CC(=O)O)C(=O)N[C@@H](CCCNC(=N)N)C(=O)N[C@@H](CC(C)C)C(=O)N[C@@H](Cc1c[nH]cn1)C(=O)N[C@@H](CCC(N)=O)C(=O)N[C@@H](CCC(=O)O)C(=O)N[C@@H](CC(=O)O)C(=O)N[C@@H](Cc1ccccc1)C(=O)N[C@H](C(=O)N[C@@H](CCCCN)C(=O)N[C@@H](Cc1c[nH]c2ccccc12)C(=O)N[C@@H](CC(C)C)C(=O)N[C@@H](CC(C)C)C(=O)N[C@@H](C)C(=O)N[C@@H](CCC(N)=O)C(=O)N[C@@H](CCCNC(=N)N)C(=O)NCC(=O)O)C(C)C [Sequence 15] (H-Y[Aib]EGTFISDYSIALDRLHQEDFVKWLLAQRG-OH; N-terminus and C-terminus assumed) | > 0.1 nM
6 | CC[C@H](C)[C@H](NC(=O)[C@H](CCC(=O)O)NC(=O)[C@H](CC(=O)O)NC(=O)[C@H](CC(C)C)NC(=O)C(C)(C)NC(=O)[C@@H](NC(=O)[C@H](CO)NC(=O)[C@H](Cc1ccc(O)cc1)NC(=O)[C@H](CC(=O)O)NC(=O)[C@H](CO)NC(=O)[C@@H](NC(=O)[C@H](Cc1ccccc1)NC(=O)[C@@H](NC(=O)CNC(=O)[C@H](CCC(=O)O)NC(=O)C(C)(C)NC(=O)[C@@H](N)Cc1ccc(O)cc1)[C@@H](C)O)[C@@H](C)CC)[C@@H](C)CC)C(=O)N[C@@H](Cc1c[nH]cn1)C(=O)N[C@@H](CCC(N)=O)C(=O)N[C@@H](CCCCN)C(=O)N[C@@H](CC(=O)O)C(=O)N[C@@H](Cc1ccccc1)C(=O)N[C@H](C(=O)N[C@@H](CCCCN)C(=O)N[C@@H](Cc1c[nH]c2ccccc12)C(=O)N[C@@H](CC(C)C)C(=O)N[C@@H](CC(C)C)C(=O)N[C@@H](C)C(=O)N[C@@H](CCC(N)=O)C(=O)N[C@@H](CCCCN)C(=O)NCC(=O)O)C(C)C [Sequence 2] (H-Y[Aib]EGTFISDYSI[Aib]LDEIHQKDFVKWLLAQKG-OH; N-terminus and C-terminus assumed) | > 0.1 nM
7 | CC[C@H](C)[C@H](NC(=O)[C@H](CO)NC(=O)[C@H](Cc1ccc(O)cc1)NC(=O)[C@H](CC(=O)O)NC(=O)[C@H](CO)NC(=O)[C@@H](NC(=O)[C@H](Cc1ccccc1)NC(=O)[C@@H](NC(=O)CNC(=O)[C@H](CCC(=O)O)NC(=O)C(C)(C)NC(=O)[C@@H](N)Cc1ccc(O)cc1)[C@@H](C)O)[C@@H](C)CC)C(=O)N[C@@H](C)C(=O)N[C@@H](CC(C)C)C(=O)N[C@@H](CC(=O)O)C(=O)N[C@@H](CCCNC(=N)N)C(=O)N[C@@H](CC(C)C)C(=O)N[C@@H](Cc1c[nH]cn1)C(=O)N[C@@H](CCC(N)=O)C(=O)N[C@@H](CCC(N)=O)C(=O)N[C@@H](CC(=O)O)C(=O)N[C@@H](Cc1ccccc1)C(=O)N[C@H](C(=O)N[C@@H](CC(N)=O)C(=O)N[C@@H](Cc1c[nH]c2ccccc12)C(=O)N[C@@H](CC(C)C)C(=O)N[C@@H](CC(C)C)C(=O)N[C@@H](C)C(=O)N[C@@H](CCC(N)=O)C(=O)N[C@@H](CCCCN)C(=O)NCC(=O)O)C(C)C [Sequence 18] (H-Y[Aib]EGTFISDYSIALDRLHQQDFVNWLLAQKG-OH; N-terminus and C-terminus assumed) | > 0.1 nM
8 | CC[C@H](C)[C@H](NC(=O)[C@H](CO)NC(=O)[C@H](Cc1ccc(O)cc1)NC(=O)[C@H](CC(=O)O)NC(=O)[C@H](CO)NC(=O)[C@@H](NC(=O)[C@H](Cc1ccccc1)NC(=O)[C@@H](NC(=O)CNC(=O)[C@H](CCC(=O)O)NC(=O)C(C)(C)NC(=O)[C@@H](N)Cc1ccc(O)cc1)[C@@H](C)O)[C@@H](C)CC)C(=O)N[C@@H](C)C(=O)N[C@@H](CC(C)C)C(=O)N[C@@H](CC(=O)O)C(=O)N[C@@H](CCCNC(=N)N)C(=O)N[C@H](C(=O)N[C@@H](Cc1c[nH]cn1)C(=O)N[C@@H](CCC(N)=O)C(=O)N[C@@H](CCC(N)=O)C(=O)N[C@@H](CC(=O)O)C(=O)N[C@@H](Cc1ccccc1)C(=O)N[C@H](C(=O)N[C@@H](CC(N)=O)C(=O)N[C@@H](Cc1c[nH]c2ccccc12)C(=O)N[C@@H](CC(C)C)C(=O)N[C@@H](CC(C)C)C(=O)N[C@@H](C)C(=O)N[C@@H](CCC(N)=O)C(=O)N[C@@H](CCCCN)C(=O)NCC(=O)O)C(C)C)[C@@H](C)CC [Sequence 14] (H-Y[Aib]EGTFISDYSIALDRIHQQDFVNWLLAQKG-OH; N-terminus and C-terminus assumed) | > 0.1 nM
9 | CC[C@H](C)[C@H](NC(=O)[C@H](CO)NC(=O)[C@H](Cc1ccc(O)cc1)NC(=O)[C@H](CC(=O)O)NC(=O)[C@H](CO)NC(=O)[C@@H](NC(=O)[C@H](Cc1ccccc1)NC(=O)[C@@H](NC(=O)CNC(=O)[C@H](CCC(=O)O)NC(=O)C(C)(C)NC(=O)[C@@H](N)Cc1ccc(O)cc1)[C@@H](C)O)[C@@H](C)CC)C(=O)N[C@@H](C)C(=O)N[C@@H](CC(C)C)C(=O)N[C@@H](CC(=O)O)C(=O)N[C@@H](CCCNC(=N)N)C(=O)N[C@H](C(=O)N[C@@H](Cc1c[nH]cn1)C(=O)N[C@@H](CCC(N)=O)C(=O)N[C@@H](CCC(N)=O)C(=O)N[C@@H](CC(=O)O)C(=O)N[C@@H](Cc1ccccc1)C(=O)N[C@H](C(=O)N[C@@H](CCCCN)C(=O)N[C@@H](Cc1c[nH]c2ccccc12)C(=O)N[C@@H](CC(C)C)C(=O)N[C@@H](CC(C)C)C(=O)N[C@@H](C)C(=O)N[C@@H](CCC(N)=O)C(=O)N[C@@H](CCCNC(=N)N)C(=O)NCC(=O)O)C(C)C)[C@@H](C)CC [Sequence 13] (H-Y[Aib]EGTFISDYSIALDRIHQQDFVKWLLAQRG-OH; N-terminus and C-terminus assumed) | > 0.1 nM
